Our source for the IC50 values is patent US10633419B2, “Immunomodulators” (BRISTOL-MYERS SQUIBB COMPANY, priority 2014, dated 2020).

Starred links: 1 amine or outer side, 2 acyl side, 3 side chain; linkers in the order of their positions; H or OH if unused. Positions of bridges follow the written chain, without caps; N, C: chain ends. Non-standard residues stand in square brackets, D forms with d. Residues, ends and D or L forms follow the SMILES beside them. ξ: configuration not given here. *: point of attachment. Trp(1-CH2COOH) = N[C@@H](Cc1cn(CC(=O)O)c2ccccc12)C(=O)O; X24 = O=C(C[C@@H](Cc1ccc(O)cc1)C(=O)[*:1])C[*:2]; PEG6 = NCCOCCOCCOCCOCCOCCOCCC(=O)O; Hyp = O=C(O)[C@@H]1C[C@@H](O)CN1; Myristoyl = CCCCCCCCCCCCCC(=O)*; Undecanoyl = CCCCCCCCCCC(=O)*; NMeNle = CCCC[C@H](NC)C(=O)O; NMeA = CN[C@@H](C)C(=O)O; Dab = NCC[C@H](N)C(=O)O; ξD = NC(CC(=O)O)C(=O)O; ξC = NC(CS)C(=O)O

The target of one assay is T1, PD-L1 (Homo sapiens, UniProt Q9NZQ7).
T1 construct: hPDL1(19-239)-TVMV-His; made in house; host or cells: HEK293T
T1 sequence (Q9NZQ7 with tags, fused parts or gaps): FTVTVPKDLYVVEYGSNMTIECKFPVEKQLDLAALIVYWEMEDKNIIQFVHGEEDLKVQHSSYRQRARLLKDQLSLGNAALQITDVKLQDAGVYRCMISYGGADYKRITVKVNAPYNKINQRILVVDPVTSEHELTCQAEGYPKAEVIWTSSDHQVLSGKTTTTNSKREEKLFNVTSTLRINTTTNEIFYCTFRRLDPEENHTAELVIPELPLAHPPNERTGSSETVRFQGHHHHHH
Briefly: PD-1/PD-L1 Homogenous Time-Resolved Fluorescence (HTRF) binding assay (PD-1-Ig/PD-L1-His). The conditions noted are these: inhibition of PD-1-Ig binding to PD-L1-TVMV-His; value given as number; read-out: HTRF IC50. An excerpt:
The ability of the macrocyclic peptides of the present disclosure to bind to PD-L1 was investigated using a PD-1/PD-L1 Homogenous Time-Resolved Fluorescence (HTRF) binding assay.
Homogenous Time-Resolved Fluorescence (HTRF) Assays of Binding of Soluble PD-1 to Soluble PD-L1. Soluble PD-1 and soluble PD-L1 refers to proteins with carboxyl-end truncations that remove the transmembrane-spanning regions and are fused to heterologous sequences, specifically the Fc portion of the human immunoglobuling G sequence (Ig) or the hexahistidine epitope tag (His). All binding studies were performed in an HTRF assay buffer consisting of dPBS supplemented with 0.1% (w/v) bovine serum albumin and 0.05% (v/v) Tween-20. For the PD-1-Ig/PD-L1-His binding assay, inhibitors were pre-incubated with PD-L1-His (10 nM final) for 15 m in 4 μl of assay buffer, followed by addition of PD-1-Ig (20 nM final) in 1 μl of assay buffer and further incubation for 15m. PD-L1 fusion proteins from either human, cynomologous macaques, mouse, or other species were used. HTRF detection was achieved using europium crypate-labeled anti-Ig monoclonal antibody (1 nM final) and allophycocyanin (APC) labeled anti-His monoclonal antibody (20 nM final). Antibodies were diluted in HTRF detection buffer and 5 μl was dispensed on top of binding reaction. The reaction was allowed to equilibrate for 30 minutes and signal (665 nm/620 nm ratio) was obtained using an EnVision fluorometer. Additional binding assays were established between PD-1-Ig/PD-L2-His (20 and 5 nM, respectively), CD80-His/PD-L1-Ig (100 and 10 nM, respectively) and CD80-His/CTLA4-Ig (10 and 5 nM, respectively). Binding/competition studies between biotinylated Compound No. 71 and human PD-L1-His were performed as follows. Macrocyclic peptide inhibitors were pre-incubated with PD-L1-His (10 nM final) for 60 minutes in 4 μl of assay buffer followed by addition of biotinylated Compound No. 71 (0.5 nM final) in 1 μl of assay buffer. Binding was allowed to equilibrate for 30 minutes followed by addition of europium crypated labeled Streptavidin (2.5 pM final) and APC-labeled anti-His (20 nM final) in 5 μl of HTRF buffer. The reaction was allowed to equilibrate for 30m and signal (665 nm/620 nm ratio) was obtained using an EnVision fluorometer.
Recombinant Proteins. Carboxyl-truncated human PD-1 (amino acids 25-167) with a C-terminal human Ig epitope tag [hPD-1 (25-167)-3S-IG] and human PD-L1 (amino acids 18-239) with a C-terminal His epitope tag [hPD-L1(19-239)-tobacco vein mottling virus protease cleavage site (TVMV)-His] were expressed in HEK293T cells and purified sequentially by recombinant Protein A affinity chromatography and size exclusion chromatography. Human PD-L2-His (Sino Biologicals), CD80-His (Sino Biologicals), CTLA4-Ig (RnD Systems) were all obtained through commercial sources.
In general terms: In TR-FRET formats the signal depends on donor and acceptor labels being close together.
Regarding `CCCCCCCCCCC(=O)NCCCC[C@H](NC(=O)[C@H](CC(=O)O)NC(=O)CNC(=O)[C@@H]1CSCC(=O)N[C@@H](Cc2ccc(O)cc2)C(=O)N(C)[C@@H](C)C(=O)N[C@@H](CC(N)=O)C(=O)N2CCC[C@H]2C(=O)N[C@@H](Cc2cnc[nH]2)C(=O)N[C@@H](CCC(=O)O)C(=O)N2C[C@H](O)C[C@H]2C(=O)N[C@@H](Cc2c[nH]c3ccccc23)C(=O)N[C@@H](CO)C(=O)N[C@@H](Cc2c[nH]c3ccccc23)C(=O)N(C)[C@@H](CCCC)C(=O)N(C)[C@@H](CCCC)C(=O)N[C@@H](CC(C)C)C(=O)N1)C(N)=O` [Example 11009] ({CH2CO}-Y[NMeA]NPHE[Hyp]WSW[NMeNle][NMeNle]LCGDK(Undecanoyl)-NH2; thioether N-14), the half-maximal inhibitory concentration (IC50) is 91.4 nM.

Still in this assay, the particulars now being: inhibition of PD-1-Ig binding to PD-L1-TVMV-His; value given as range class; read-out: HTRF IC50.
For `CCCCCCCCCCC(=O)NCCCC[C@H](NC(=O)[C@H](CC(=O)O)NC(=O)CNC(=O)[C@@H]1CSCC(=O)N[C@@H](Cc2ccc(O)cc2)C(=O)N(C)[C@@H](C)C(=O)N[C@@H](CC(=O)O)C(=O)N2CCC[C@H]2C(=O)N[C@@H](Cc2cnc[nH]2)C(=O)N[C@@H](CC(C)C)C(=O)N2C[C@H](O)C[C@H]2C(=O)N[C@@H](Cc2c[nH]c3ccccc23)C(=O)N[C@@H](CO)C(=O)N[C@@H](Cc2c[nH]c3ccccc23)C(=O)N(C)[C@@H](CCCC)C(=O)N(C)[C@@H](CCCC)C(=O)N[C@@H](CCCNC(=N)N)C(=O)N1)C(N)=O` [Example 11006] ({CH2CO}-Y[NMeA]DPHL[Hyp]WSW[NMeNle][NMeNle]RCGDK(Undecanoyl)-NH2; thioether N-14), the IC50 was 10 to 99 nM. On the same count and under the same terms, as for `CCCCCCCCCCC(=O)NCCCC[C@H](NC(=O)CNC(=O)[C@@H]1CSCC(=O)N[C@@H](Cc2ccc(O)cc2)C(=O)N(C)[C@@H](C)C(=O)N[C@@H](CC(N)=O)C(=O)N2CCC[C@H]2C(=O)N[C@@H](Cc2cnc[nH]2)C(=O)N[C@@H](CCC(=O)O)C(=O)N2C[C@H](O)C[C@H]2C(=O)N[C@@H](Cc2c[nH]c3ccccc23)C(=O)N[C@@H](CCN)C(=O)N[C@@H](Cc2c[nH]c3ccccc23)C(=O)N(C)[C@@H](CCCC)C(=O)N(C)[C@@H](CCCC)C(=O)N[C@@H](CCN)C(=O)N1)C(N)=O` [Example 11007] ({CH2CO}-Y[NMeA]NPHE[Hyp]W[Dab]W[NMeNle][NMeNle][Dab]CGK(Undecanoyl)-NH2; thioether N-14), the figure is 10 to 99 nM. As for `CCCCCCCCCCC(=O)NCCCC[C@H](NC(=O)[C@H](CC(=O)O)NC(=O)[C@@H]1CSCC(=O)N[C@@H](Cc2ccc(O)cc2)C(=O)N(C)[C@@H](C)C(=O)N[C@@H](CC(=O)O)C(=O)N2CCC[C@H]2C(=O)N[C@@H](Cc2cnc[nH]2)C(=O)N[C@@H](CC(C)C)C(=O)N2C[C@H](O)C[C@H]2C(=O)N[C@@H](Cc2c[nH]c3ccccc23)C(=O)N[C@@H](CO)C(=O)N[C@@H](Cc2c[nH]c3ccccc23)C(=O)N(C)[C@@H](CCCC)C(=O)N(C)[C@@H](CCCC)C(=O)N[C@@H](CCCNC(=N)N)C(=O)N1)C(N)=O` [Example 11008] ({CH2CO}-Y[NMeA]DPHL[Hyp]WSW[NMeNle][NMeNle]RCDK(Undecanoyl)-NH2; thioether N-14), the IC50 was in the range of 100 to 1600 nM. As for `CCCCCCCCCCC(=O)NCCCC[C@H](NC(=O)[C@H](CCC(=O)O)NC(=O)CNC(=O)[C@@H]1CSCC(=O)N[C@@H](Cc2ccc(O)cc2)C(=O)N(C)[C@@H](C)C(=O)N[C@@H](CC(N)=O)C(=O)N2CCC[C@H]2C(=O)N[C@@H](Cc2cnc[nH]2)C(=O)N[C@@H](CCC(=O)O)C(=O)N2C[C@H](O)C[C@H]2C(=O)N[C@@H](Cc2c[nH]c3ccccc23)C(=O)N[C@@H](CO)C(=O)N[C@@H](Cc2c[nH]c3ccccc23)C(=O)N(C)[C@@H](CCCC)C(=O)N(C)[C@@H](CCCC)C(=O)N[C@@H](CC(C)C)C(=O)N1)C(N)=O` [Example 11010] ({CH2CO}-Y[NMeA]NPHE[Hyp]WSW[NMeNle][NMeNle]LCGEK(Undecanoyl)-NH2; thioether N-14), the concentration for half-maximal inhibition (IC50) fell in the range of 10 to 99 nM. Regarding `CCCCCCCCCCC(=O)NCCCC[C@H](NC(=O)[C@H](CC(=O)O)NC(=O)[C@@H]1CSCC(=O)N[C@@H](Cc2ccc(O)cc2)C(=O)N(C)[C@@H](C)C(=O)N[C@@H](CC(N)=O)C(=O)N2CCC[C@H]2C(=O)N[C@@H](Cc2cnc[nH]2)C(=O)N[C@@H](CCC(=O)O)C(=O)N2C[C@H](O)C[C@H]2C(=O)N[C@@H](Cc2c[nH]c3ccccc23)C(=O)N[C@@H](CCN)C(=O)N[C@@H](Cc2cn(CC(=O)O)c3ccccc23)C(=O)N(C)[C@@H](CCCC)C(=O)N(C)[C@@H](CCCC)C(=O)N[C@@H](CC(C)C)C(=O)N1)C(N)=O` [Example 11011] ({CH2CO}-Y[NMeA]NPHE[Hyp]W[Dab][Trp(1-CH2COOH)][NMeNle][NMeNle]LCDK(Undecanoyl)-NH2; thioether N-14), the IC50 lay within 10 to 99 nM. As for `CCCCCCCCCCC(=O)NCCCC[C@H](NC(=O)CCOCCOCCOCCOCCOCCOCCNC(=O)[C@@H]1CSCC(=O)C[C@@H](Cc2ccc(O)cc2)C(=O)N(C)[C@@H](C)C(=O)N[C@@H](CC(N)=O)C(=O)N2CCC[C@H]2C(=O)N[C@@H](Cc2cnc[nH]2)C(=O)N[C@@H](CCC(=O)O)C(=O)N2C[C@H](O)C[C@H]2C(=O)N[C@@H](Cc2c[nH]c3ccccc23)C(=O)N[C@@H](CCN)C(=O)N[C@@H](Cc2cn(CC(=O)O)c3ccccc23)C(=O)N(C)[C@@H](CCCC)C(=O)N(C)[C@@H](CCCC)C(=O)N[C@@H](CC(C)C)C(=O)N1)C(N)=O` [Example 11012] ([NMeA]NPHE[Hyp]W[Dab][Trp(1-CH2COOH)][NMeNle][NMeNle]LC[PEG6]K(Undecanoyl)-NH2; linker N-13 via X24), the IC50 fell in the range of 10 to 99 nM. On the same count and under the same terms, the figure for `CCCCCCCCCCCCCC(=O)NCCCC[C@H](NC(=O)C(CC(=O)O)NC(=O)CCOCCOCCOCCOCCOCCOCCNC(=O)CNC(=O)[C@@H]1CSCC(=O)C[C@@H](Cc2ccc(O)cc2)C(=O)N(C)[C@@H](C)C(=O)N[C@@H](CC(=O)O)C(=O)N2CCC[C@H]2C(=O)N[C@@H](Cc2cnc[nH]2)C(=O)N[C@@H](CC(C)C)C(=O)N2C[C@H](O)C[C@H]2C(=O)N[C@@H](Cc2c[nH]c3ccccc23)C(=O)N[C@@H](CO)C(=O)N[C@@H](Cc2c[nH]c3ccccc23)C(=O)N(C)[C@@H](CCCC)C(=O)N(C)[C@@H](CCCC)C(=O)N[C@@H](CCCNC(=N)N)C(=O)N1)C(N)=O` (stereo partly shown) [Example 11013] ([NMeA]DPHL[Hyp]WSW[NMeNle][NMeNle]RCG[PEG6][ξD]K(Myristoyl)-NH2; linker N-13 via X24) is 10 to 99 nM; for `CCCCCCCCCCCCCC(=O)NCCCC[C@H](NC(=O)[C@H](CC(=O)O)NC(=O)[C@H](CC(=O)O)NC(=O)CNC(=O)[C@@H]1CSCC(=O)N[C@@H](Cc2ccc(O)cc2)C(=O)N(C)[C@@H](C)C(=O)N[C@@H](CC(=O)O)C(=O)N2CCC[C@H]2C(=O)N[C@@H](Cc2cnc[nH]2)C(=O)N[C@@H](CC(C)C)C(=O)N2C[C@H](O)C[C@H]2C(=O)N[C@@H](Cc2c[nH]c3ccccc23)C(=O)N[C@@H](CO)C(=O)N[C@@H](Cc2c[nH]c3ccccc23)C(=O)N(C)[C@@H](CCCC)C(=O)N(C)[C@@H](CCCC)C(=O)N[C@@H](CCCNC(=N)N)C(=O)N1)C(N)=O` [Example 11014] ({CH2CO}-Y[NMeA]DPHL[Hyp]WSW[NMeNle][NMeNle]RCGDDK(Myristoyl)-NH2; thioether N-14) it is 100 to 1600 nM. Turning to `CCCCCCCCCCCCCC(=O)NCCCC[C@H](NC(=O)CCOCCOCCOCCOCCOCCOCCNC(=O)CNC(=O)C1CSCC(=O)N[C@@H](Cc2ccc(O)cc2)C(=O)N(C)[C@@H](C)C(=O)N[C@@H](CC(=O)O)C(=O)N2CCC[C@H]2C(=O)N[C@@H](Cc2cnc[nH]2)C(=O)N[C@@H](CC(C)C)C(=O)N2C[C@H](O)C[C@H]2C(=O)N[C@@H](Cc2c[nH]c3ccccc23)C(=O)N[C@@H](CO)C(=O)N[C@@H](Cc2c[nH]c3ccccc23)C(=O)N(C)[C@@H](CCCC)C(=O)N(C)[C@@H](CCCC)C(=O)N[C@@H](CCCNC(=N)N)C(=O)N1)C(N)=O` (stereo partly shown) [Example 11015] ({CH2CO}-Y[NMeA]DPHL[Hyp]WSW[NMeNle][NMeNle]R[ξC]G[PEG6]K(Myristoyl)-NH2; thioether N-14), the IC50 lay in the range of 10 to 99 nM.

What is called IC50 is the concentration that inhibits the measured activity by half.
